Data on one molecule can be found in patent US20150038513A1, “ASSOCIATION BETWEEN N-HYDROXY-4-BENZAMIDE AND FOLFOX” (LES LABORATOIRES SERVIER, priority 2011, published 2015).

The subject of assay [1] is colorectal cancer, a pancreatic cancer or a gastric cancer. As to the kind of experiment: Clinical study of the association with FOLFOX. It counts as in vivo. The following applies: patients previously treated by FOLFOX. On the procedure: A clinical study for testing the association of N-hydroxy-4-{2-[3-(N,N-dimethylamino-methyl)benzofuran-2-ylcarbonylamino]ethoxy}benzamide with FOLFOX is carried out on a maximum of 60 patients. Patients included in the study suffer from a colorectal cancer, a pancreatic cancer or a gastric cancer, and they have been treated by a treatment based on FOLFOX (i.e., alone or in association with other treatments) prior to their inclusion. More precisely, the study consists of 14-day cycles, each of the cycles being performed as follows: N-hydroxy-4-{2-[3-(N,N-dimethylaminomethyl)benzofuran-2-ylcarbonylamino]ethoxy}benzamide (in the form of a hydrochloride salt) is administered for 4 consecutive days whilst oxaliplatin and folinic acid are administered simultaneously on the third day, at the end of infusion of which 5-fluorouracil is administered continuously until the fifth day. […] At the end of a treatment cycle, the toxicity of the regimen associating N-hydroxy-4-{2-[3-(N,N-dimethylaminomethyl)benzofuran-2-ylcarbonylamino]ethoxy}benzamide and FOLFOX is assessed. […] Every four cycles, the efficacy of the treatment is assessed by evaluating the tumour response (CT scan, MRI, etc.). The acceptability profile is also evaluated (especially haematologic and cardiac toxicity).

Assay [2] has as its system histone deacetylase (HDAC). The following applies: described in WO2004/092115; cited from earlier work.
The test system of a further assay is cultured tumour cells. Conditions: cultured tumour cells in vitro; Buggy et al. 2006; cited from earlier work.
The next assay relates to xenograft models. The following applies: in vivo, Buggy et al. 2006; cited from earlier work.

Each structure is given as a SMILES string.

Take `CN(C)Cc1c(C(=O)NCCOc2ccc(C(=O)NO)cc2)oc2ccccc12` [N-hydroxy-4-{2-[3-(N,N-dimethylaminomethyl)benzofuran-2-ylcarbonylamino]ethoxy}benzamide]: the “efficacy of the treatment (tumour response) of the association with FOLFOX” value in assay [1] (hydrochloride salt p.o., 160-360 mg daily, 4 consecutive days, in association with FOLFOX, 14-day cycles) is “promising”. Also, in assay [1], the “reversal of resistance to FOLFOX” value is on record as “reverse the resistance to FOLFOX”. Also, the HDAC inhibition entry in assay [2] is listed as “powerful histone deacetylase (HDAC) inhibitor”. Also, in the assay with cultured tumour cells, the apoptosis result was “induces apoptosis” and the cell growth entry is recorded as “inhibition of cell growth”. Besides, in the assay with xenograft models, the tumour growth entry is listed as “inhibits tumour growth”.
